Values of other authors, collected in patent US20060258633A1, “Amorphous tegaserod maleate” (priority 2005, published 2006).

Conditions: white to off-white crystalline powder

In the case of `CCCCCNC(=N)N/N=C/c1c[nH]c2ccc(OC)cc12.O=C(O)/C=C\C(=O)O` [Tegaserod maleate, 3-(5-methoxy-1H-indole-3-ylmethylene)-N-pentylcarbazimidamide hydrogen meleate], the solubility in ethanol (ethanol) is listed as “slightly soluble” and the solubility in water (water) is listed as “very slightly soluble”.
